Test results from PubChem BioAssay (NCI).
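Growth conditions: 96-well plates. Treatment: test compound, 48 hours, 5 concentrations. Analysis: linear interpolation between bracketing concentrations; unreached endpoints set to highest concentration. TGI: concentration producing complete growth inhibition.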

How the values were obtained:
Experiment in all cases: NCI tumour cell line growth inhibition, 48 h
[1] = tested on: HCC-2998 colon
[2] = tested on: SW-620 colon
[3] = tested on: M14 melanoma
[4] = tested on: KM12 colon
[5] = tested on: RXF-631 renal
[6] = tested on: SNB-78 CNS
[7] = tested on: SK-MEL-28 melanoma
[8] = tested on: HL-60(TB) leukemia
[9] = tested on: SK-MEL-2 melanoma
[10] = tested on: KM20L2 colon
[11] = tested on: HOP-92 NSCLC
[12] = tested on: UO-31 renal
[13] = tested on: HCT-116 colon
[14] = tested on: SF-539 CNS
[15] = tested on: XF 498 CNS
[16] = tested on: CCRF-CEM leukemia
[17] = tested on: HOP-62 NSCLC
[18] = tested on: SNB-19 CNS
[19] = tested on: DLD-1 colon
[20] = tested on: SK-OV-3 ovarian
[21] = tested on: DMS 273 small cell lung
[22] = tested on: COLO 205 colon
[23] = tested on: IGROV1 ovarian
[24] = tested on: UACC-257 melanoma
[25] = tested on: SF-268 CNS
[26] = tested on: OVCAR-8 ovarian
[27] = tested on: K-562 leukemia
[28] = tested on: SK-MEL-5 melanoma
[29] = tested on: MOLT-4 leukemia
[30] = tested on: MALME-3M melanoma
[31] = tested on: NCI-H460 lung
[32] = tested on: OVCAR-3 ovarian
[33] = tested on: LXFL 529 NSCLC
[34] = tested on: NCI-H226 lung
[35] = tested on: A498 renal
[36] = tested on: U251 CNS
[37] = tested on: A549 NSCLC
[38] = tested on: M19-MEL melanoma
[39] = tested on: HCT-15 colon
[40] = tested on: CAKI-1 renal
[41] = tested on: NCI-H522 lung
[42] = tested on: UACC-62 melanoma
[43] = tested on: ACHN renal
[44] = tested on: SF-295 CNS
[45] = tested on: SNB-75 CNS
[46] = tested on: NCI-H23 lung
[47] = tested on: OVCAR-5 ovarian
[48] = tested on: 786-0 renal
[49] = tested on: DMS 114 small cell lung
[50] = tested on: TK-10 renal
[51] = tested on: LOX IMVI melanoma
[52] = tested on: EKVX NSCLC
[53] = tested on: OVCAR-4 ovarian
[54] = tested on: SN12C renal
[55] = tested on: HT29 colon
[56] = tested on: RPMI-8226 leukemia
[57] = tested on: HOP-18 NSCLC
[58] = tested on: SR leukemia

Measured: TGI

O=C(O)C12C3C4C1C1C2C3C41I (stereo not given)
not listed: [57] | [58]
> 100 µM: all other assays above

O=C1COc2cc3c(cc2N1)SCC(=O)N3
not listed: [10] | [31] | [35] | [36] | [39] | [43] | [47] | [51] | [54]
> 100 µM: all other assays above
